# Results as given in patent US7074743B1, “Herbicidal composition comprising 4-iodo-2-[3-(4-methoxy-6-methyl-1,3,5-triazin-2-yl)ureidosulfonyl]benzoic esters” (priority 1995, dated 2006).
# Experiments:
# Format in all cases: in vivo
# Gallium aparine = test: Herbicidal action on GALAP, visual scoring vs untreated, post-emergence 2-4 leaf stage; settings: Table 7
# Experimental: (§1) The examples given below were performed in the greenhouse and, in some cases, in field trials.
# (§2) The herbicides, or combinations, were applied in cereals after the weeds had emerged naturally using plot sprayers. After application, the results, such as damage to the crop plants and effect on broad-leaved weeds/grass weeds were assessed by means of visual scoring. The herbicidal action was assessed qualitatively and quantitatively by comparing untreated and treated plots on the basis of the effect on plant growth and the development of chloroses and necroses down to the complete destruction of the weeds (0–100%). The application was effected when the crop plants and weeds were in the 2–4 leaf stage. The test was evaluated approximately 4 weeks after application.
# (§3) In the greenhouse experiments, the crop plants and broadleaved weeds/grass weeds were grown in No. 13 pots and treated in the 2–4 leaf stage. The pots were subsequently placed in the greenhouse under good growth conditions (temperature, atmospheric humidity, water supply).
# (§4) The assessments were carried out similarly to those in the field trials, i.e. visual scoring of the treated plants in comparison with untreated control variants. These assessments were carried out 3 weeks after applying the test preparations and their combinations. The experiments had been set up in two replications.
# (§5) To assess the combination effects, the activities of the individual components were added and compared with the activity of the mixtures in equal doses. It was frequently observed that the efficacies of the combinations exceeded the total of the individual activities.
# (§6) In cases with less clear effects, the expected value was calculated using Colby's formula and compared with the empirically determined result. The calculated efficacy of a combination which is expected in theory is determined is using S.R. Colby's formula: “Calculation of synergistic and antagonistic responses of herbicide combinations”, Weeds 15 (1967), pages 20 to 22.
# (§7) [formula] where • X=% damage caused by herbicide A at a rate of ×kg a.i./ha; • Y=% damage caused by herbicide B at a rate of y kg a.i./ha; • Z=% damage caused by a further herbicide C at a rate of z kg a.i./ha; • E=expected value, i.e. expected damage caused by herbicides A+B (or A+B+C) at x+y (or x+y+z) kg a.i./ha.
# (§8) Synergistic effects were assumed to be when the empirical value exceeded the expected value. In the case of combinations with individual components with the same active substances, comparisons via the total formula were also possible.
# Triticum aestivum = test: Damage to crop plant TRZAW, visual scoring vs untreated
# Experimental: as §1, §2, §3, §4
# Viola arvensis = test: Herbicidal action on VIOAR, visual scoring vs untreated, post-emergence 2-4 leaf stage; settings: Table 7
# Experimental: as §1, §2, §3, §4, §5, §6, §7, §8
# Zea mays = test: Damage to crop plant ZEAMA, visual scoring vs untreated
# Experimental: as §1, §2, §3, §4
# Abuthilon theophrastis = test: Herbicidal action on ABUTHE, visual scoring vs untreated, post-emergence 2-4 leaf stage; settings: Table 12; 4.5 g of ai/ha
# Experimental: as §1, §2
# (§9) In the greenhouse experiments, the crop plants and broadleaved weeds/grass weeds were grown in No. 13 pots and treated in the 2–4 leaf stage. […]
# (§10) In cases with less clear effects, the expected value was calculated using Colby's formula and compared with the empirically determined result. The calculated efficacy of a combination which is expected in theory is determined is using S.R. Colby's formula: “Calculation of synergistic and antagonistic responses of herbicide combinations”, Weeds 15 (1967), pages 20 to 22. […]
# Ambrosia elatior = test: Herbicidal action on AMBEL, visual scoring vs untreated, post-emergence 2-4 leaf stage; settings: Table 12; 4.5 g of ai/ha
# Experimental: as §1, §2, §9, §10
# Echinochloa crus galli = test: Herbicidal action on ECHCR, visual scoring vs untreated, post-emergence 2-4 leaf stage; settings: Table 8
# Experimental: as §1, §2, §3, §4, §5, §6, §7, §8
# Secale cereale = test: Damage to crop plant SECCW, visual scoring vs untreated; settings: Table 10; 20 g of a.i./ha
# Experimental: as §1, §2, §3, §4
# Centaurea cyanus = test: Herbicidal action on CENCY, visual scoring vs untreated, post-emergence 2-4 leaf stage
# Experimental: as §1, §2, §3, §4, §5, §6, §7, §8
# Fallopia convolvulus = test: Herbicidal action on FALCO, visual scoring vs untreated, post-emergence 2-4 leaf stage; settings: Table 9
# Experimental: as §1, §2, §3, §4, §5, §6, §7, §8
# Lolium multiflorum = test: Herbicidal action on LOLMU, visual scoring vs untreated, post-emergence 2-4 leaf stage; settings: Table 3
# Experimental: as §1, §2, §3, §4, §5, §6, §7, §8
# Phalaris canariensis = test: Herbicidal action on PHACA, visual scoring vs untreated, post-emergence 2-4 leaf stage (greenhouse / field trials); settings: Table 3
# Experimental: as §1, §2, §3, §4, §5, §6, §7, §8
molecule,measurement,setting,value
"N#Cc1cc(I)c(O)c(I)c1 [B22), 4-hydroxy-3,5-di-iodobenzonitrile]",GALAP % control,Gallium aparine; 62.5 g of a.i./ha,0%
same,GALAP % control,Gallium aparine; 125 g of a.i./ha,3%
same,GALAP % control,Gallium aparine; 250 g of a.i./ha,10%
same,GALAP % control,Gallium aparine; 500 g of a.i./ha,18%
same,TRZAW % damage,Triticum aestivum; in vivo,0%
"CCOC(=O)COC(=O)c1cc(Oc2ccc(C(F)(F)F)cc2Cl)ccc1[N+](=O)[O-] [B25), fluoroglycofen-ethyl]",VIOAR % control,Viola arvensis; 4 g of a.i./ha,3%
same,VIOAR % control,Viola arvensis; 8 g of a.i./ha,18%
same,VIOAR % control,Viola arvensis; 15 g of a.i./ha,38%
same,VIOAR % control,Viola arvensis; 30 g of a.i./ha,62%
same,TRZAW % damage,Triticum aestivum; in vivo,0%
"CCOC(=O)C(Cl)Cc1cc(-n2nc(C)n(C(F)F)c2=O)c(F)cc1Cl (stereo not drawn) [B31), carfentrazone-ethyl]",ZEAMA % damage,"Zea mays; Table 12, 4.5 g of ai/ha",5%
same,ABUTHE % control,Abuthilon theophrastis,60%
same,AMBEL % control,Ambrosia elatior,0%
"O=C(Nc1ccc(F)cc1F)c1cccnc1Oc1cccc(C(F)(F)F)c1 [B32), 2′ 4′-difluoro-2-(α,α,α-trifluoro-m-tolyloxy)nicotinanilide]",GALAP % control,Gallium aparine; 13 g of a.i./ha,0%
same,GALAP % control,Gallium aparine; 25 g of a.i./ha,0%
same,GALAP % control,Gallium aparine; 50 g of a.i./ha,5%
same,GALAP % control,Gallium aparine; 100 g of a.i./ha,5%
same,TRZAW % damage,"Triticum aestivum; Table 7, 13 g of a.i./ha",0%
same,TRZAW % damage,"Triticum aestivum; Table 7, 25 g of a.i./ha",0%
same,TRZAW % damage,"Triticum aestivum; Table 7, 50 g of a.i./ha",0%
same,TRZAW % damage,"Triticum aestivum; Table 7, 100 g of a.i./ha",0%
"CCNc1nc(Cl)nc(NC(C)C)n1 [B36), 6-chloro-N-^2-ethyl-N-4-isopropyl-1,3,5-triazine-2,4-diamine]",ZEAMA % damage,"Zea mays; Table 8, 375 g of a.i./ha",0%
same,ZEAMA % damage,"Zea mays; Table 8, 750 g of a.i./ha",0%
same,ZEAMA % damage,"Zea mays; Table 8, 1500 g of a.i./ha",0%
same,ZEAMA % damage,"Zea mays; Table 8, 3000 g of a.i./ha",0%
same,ECHCR % control,Echinochloa crus galli; 375 g of a.i./ha,0%
same,ECHCR % control,Echinochloa crus galli; 750 g of a.i./ha,0%
same,ECHCR % control,Echinochloa crus galli; 1500 g of a.i./ha,3%
same,ECHCR % control,Echinochloa crus galli; 3000 g of a.i./ha,3%
"COc1cc(OC)nc(NC(=O)NS(=O)(=O)N(C)S(C)(=O)=O)n1 [B40), 1-(4,6-dimethoxypyrimidin-2-yl)-3-mesyl (methyl)-sulfamoylurea]",SECCW % damage,Secale cereale,0%
same,CENCY % control,"Centaurea cyanus; Table 10, 20 g of a.i./ha",25%
"COC(=O)c1ccccc1S(=O)(=O)NC(=O)Nc1nc(C)nc(OC)n1 [B41), metsulfuron-methyl]",TRZAW % damage,"Triticum aestivum; Triticum aestivum, in vivo",0%
same,TRZAW % damage,Triticum aestivum; in vivo,0%
same,CENCY % control,"Centaurea cyanus; Table 9, 1 g of a.i./ha",0%
same,CENCY % control,"Centaurea cyanus; Table 9, 3 g of a.i./ha",0%
same,CENCY % control,"Centaurea cyanus; Table 9, 5 g of a.i./ha",0%
same,CENCY % control,"Centaurea cyanus; Table 9, 10 g of a.i./ha",0%
"COC(=O)c1ccccc1S(=O)(=O)NC(=O)N(C)c1nc(C)nc(OC)n1 [B42), tribenuron-methyl]",FALCO % control,Fallopia convolvulus; 5 g of a.i./ha,88%
same,FALCO % control,Fallopia convolvulus; 10 g of a.i./ha,93%
same,FALCO % control,Fallopia convolvulus; 20 g of a.i./ha,95%
same,FALCO % control,Fallopia convolvulus; 40 g of a.i./ha,97%
same,TRZAW % damage,"Triticum aestivum; Triticum aestivum, in vivo",0%
imazamethabenz-methyl [B8)],LOLMU % control,Lolium multiflorum; 375 g of a.i./ha,0%
same,LOLMU % control,Lolium multiflorum; 750 g of a.i./ha,0%
same,LOLMU % control,Lolium multiflorum; 1500 g of a.i./ha,20%
same,PHACA % control,Phalaris canariensis; 375 g of a.i./ha,0%
same,PHACA % control,Phalaris canariensis; 750 g of a.i./ha,0%
same,PHACA % control,Phalaris canariensis; 1500 g of a.i./ha,13%
